Measurements taken from patent US8232403B2, “Bicyclic derivatives as CETP inhibitors” (Novartis AG, priority 2006, dated 2012).

What was measured:
[1] = biological target: T1, CETP (cholesteryl ester transfer protein) (Homo sapiens, UniProt P11597); experiment: In vitro CETP activity assay in human plasma; format: biochemical; set-up: tissue New Drug Development Research Center, Inc; host or cells: human EDTA plasma from healthy men
T1 sequence (P11597 18-493): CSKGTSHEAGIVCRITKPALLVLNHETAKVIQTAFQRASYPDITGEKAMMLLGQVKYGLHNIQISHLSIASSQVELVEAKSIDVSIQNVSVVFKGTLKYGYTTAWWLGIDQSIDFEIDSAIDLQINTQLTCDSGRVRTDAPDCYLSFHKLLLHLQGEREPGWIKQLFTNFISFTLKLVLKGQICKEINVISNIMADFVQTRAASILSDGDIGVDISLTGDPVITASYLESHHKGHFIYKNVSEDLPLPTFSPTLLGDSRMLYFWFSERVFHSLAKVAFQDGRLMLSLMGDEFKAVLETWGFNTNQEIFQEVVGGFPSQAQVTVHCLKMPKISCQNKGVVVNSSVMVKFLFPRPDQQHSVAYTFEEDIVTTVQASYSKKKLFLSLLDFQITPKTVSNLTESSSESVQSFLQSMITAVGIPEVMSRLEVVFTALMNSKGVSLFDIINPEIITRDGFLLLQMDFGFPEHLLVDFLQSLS
Excerpt: (1) Preparation of Human Pro-Apolipoprotein Al (pro-apoAl)
The cDNA of human pro-apoAl (NCBI accession number: NM_000039) is cloned from human liver Quick-Clone™ cDNA (Clontech, Calif.) and inserted to a pET28a vector (Novagen, Germany) for bacterial expression. Expressed protein as a fusion protein with 6×His-tag at N-terminus in BL-21 Gold (DE3) (Strategene, Calif.) is purified using HiTrap Chelating (GE Healthcare, Conn.).
(2) Preparation of Donor Microemulsion
Pro-apoAl containing microemulsion as a donor particle is prepared following previous reports (J. Biol. Chem., 280:14918-22). Glyceryl trioleate (62.5 ng, Sigma, Mo.), 3-sn-phosphatidylcholine (583 ng, Wako Pure Chemical Industries, Japan), and cholesteryl BODIPY® FL C12 (250 ng, Invitrogen, Calif.) are dissolved in 1 mL of chloroform. The solution is evaporated, then residual solvent is removed in vacuum for more than 1 hr. The dried lipid mixture is dissolved in 500 μL of the assay buffer (50 mM Tris-HCl (pH7.4) containing 150 mM NaCl and 2 mM EDTA) and sonicated at 50° C. with a microtip (MICROSON™ ULTRASONIC CELL DISRUPTOR, Misonix, Farmingdale, N.Y.) at output power 006 for 2 min. After sonication, the solution is cooled to 40° C., added to 100 μg of human pro-apoAl, and sonicated at output power 004 for 5 min at 40° C. The solution, BODIPY-CE microemulsion as a donor molecule is stored at 4° C. after filtration through a 0.45 μm PVDF filter.
(3) In Vitro CETP Activity Assay in Human Plasma
Human EDTA plasma samples from healthy men are purchased from New Drug Development Research Center, Inc. Donor solution is prepared by a dilution of donor microemulsion with assay buffer. Human plasma (50 μL), assay buffer (35 μL) and test compound dissolved in dimethylsulfoxide (1 μL) are added to each well of 96 well half area black flat bottom plate. The reaction is started by the addition of donor solution (14 μL) into each well. Fluorescence intensities are measured every 30 min at 37° C. with excitation wave length of 485 nm and emission wavelength of 535 nm. The CETP activity (Fl/min) is defined as the changes of fluorescence intensity from 30 to 90 min.

[2] = biological target: T1, CETP (cholesteryl ester transfer protein); experiment: CETP inhibitory activity, IC50 in buffer; format: biochemical

SMILES | IC50 [1] | IC50 [2]
CCOC[C@H]1CCCN1c1nc2cc(F)ccc2cc1CN(Cc1cc(C(F)(F)F)cc(C(F)(F)F)c1)c1nnn(C)n1 [Example 3-5] | 0.11 µM | 0.12 µM
Cn1nnc(N(Cc2cc(C(F)(F)F)cc(C(F)(F)F)c2)Cc2cc3cc(F)c(F)cc3nc2N2CCC[C@@H]2[C@H]2CC[C@H](C(=O)O)CC2)n1 [Example 21, trans-4-{(R)-1-[3-({N-[3,5-bis(trifluoromethyl)benzyl]-N-(2-methyl-2H-tetrazol-5-yl)amino}methyl)-6,7-difluoroquinolin-2-yl]pyrrolidin-2-yl}cyclohexanecarboxylic acid] | 0.045 µM | 0.021 µM
CCN(CC1CCCC1)c1nc2cc(OC)ccc2cc1CN(Cc1cc(C(F)(F)F)cc(C(F)(F)F)c1)c1nnn(C)n1 [Example 2-7] | 0.075 µM | 0.044 µM
CCN(CC1CCCC1)c1nc2ccccc2cc1CN(Cc1cc(C(F)(F)F)cc(C(F)(F)F)c1)c1nnn(C)n1 [Example 1, N-[(3-{N′-[3,5-bis(trifluoromethyl)benzyl]-N′-(2-methyl-2H-tetrazol-5-yl)amino}methyl)quinolin-2-yl]-N-(cyclopentylmethyl)ethylamine] | 0.26 µM | 0.16 µM
Cn1nnc(N(Cc2cc(C(F)(F)F)cc(C(F)(F)F)c2)Cc2cc3ccc(F)cc3nc2N2CCCC2C2CCCCC2)n1 (stereo not shown) [Example 3-2] | 0.043 µM | 0.039 µM
CCN(CC1CCCC1)c1nc2cc(C#N)ccc2cc1CN(Cc1cc(C(F)(F)F)cc(C(F)(F)F)c1)c1nnn(C)n1 [Example 6, 3-({N-[3,5-bis(trifluoromethyl)benzyl]-N-(2-methyl-2H-tetrazol-5-yl)amino}methyl)-2-[N′-(cyclopentylmethyl)-N′-ethylamino]quinoline-7-carbonitrile] | 0.039 µM | 0.054 µM
CCN(CC1CCCC1)c1nc2cc(F)cc(F)c2cc1CN(Cc1cc(C(F)(F)F)cc(C(F)(F)F)c1)c1ncc(N2CCOCC2)cn1 [Example 13-4] | 0.033 µM | 0.0058 µM
CCC(CC)[C@H]1CCCN1c1nc2cc(F)c(F)cc2cc1CN(Cc1cc(C(F)(F)F)cc(C(F)(F)F)c1)c1nnn(C)n1 [Example 3-4] | 0.062 µM | 0.06 µM
CCN(CC1CCCC1)c1nc2cc(C)ccc2cc1CN(Cc1cc(C(F)(F)F)cc(C(F)(F)F)c1)c1nnn(C)n1 [Example 2-6] | 0.092 µM | 0.028 µM
Cn1nnc(N(Cc2cc(C(F)(F)F)cc(C(F)(F)F)c2)Cc2cc3cc(F)c(F)cc3nc2N2CCC[C@@H]2[C@H]2CC[C@H](CC(=O)O)CC2)n1 [Example 28, trans-(4-{(R)-1-[3-({N-[3,5-bis(trifluoromethyl)benzyl]-N-(2-methyl-2H-tetrazol-5-yl)amino}methyl)-6,7-difluoroquinolin-2-yl]pyrrolidin-2-yl}cyclohexyl)acetic acid] | 0.039 µM | 0.025 µM
CCOC(=O)C[C@H]1CC[C@H](CN(CC)c2nc3ccccc3cc2CN(Cc2cc(C(F)(F)F)cc(C(F)(F)F)c2)c2nnn(C)n2)CC1 [Example 2-17] | 0.22 µM | 0.25 µM

The next lines start with the values.

IC50 [1] | IC50 [2] | SMILES
0.082 µM | 0.032 µM | CCN(CC1CCCCC1)c1nc2cc(F)ccc2cc1CN(Cc1cc(C(F)(F)F)cc(C(F)(F)F)c1)c1nnn(C)n1 [Example 2-13]
0.037 µM | 0.036 µM | CCN(CC1CCCC1)c1nc2cc(F)c(F)c(F)c2cc1CN(Cc1cc(C(F)(F)F)cc(C(F)(F)F)c1)c1nnn(C)n1 [Example 2-10]
0.024 µM | 0.04 µM | CCN(CC1CCCC1)c1nc2cc(F)c(F)cc2cc1CN(Cc1cc(C(F)(F)F)cc(C(F)(F)F)c1)c1nnn(C)n1 [Example 2-8]
0.062 µM | 0.043 µM | CCN(CC1CCCCC1)c1nc2cc(F)c(F)cc2cc1CN(Cc1cc(C(F)(F)F)cc(C(F)(F)F)c1)c1nnn(C)n1 [Example 2-15]
0.03 µM | 0.16 µM | CCN(CC1CCOCC1)c1nc2cc(F)c(F)cc2cc1CN(Cc1cc(C(F)(F)F)cc(C(F)(F)F)c1)c1nnn(C)n1 [Example 2-22]
0.094 µM | 0.12 µM | CCN(CC1CCCCC1)c1nc2ccc(F)cc2cc1CN(Cc1cc(C(F)(F)F)cc(C(F)(F)F)c1)c1nnn(C)n1 [Example 2-12]
